Drawing on ChEMBL document CHEMBL3046611, “Anti-tubercular agents from Ammannia baccifera (Linn.)” (2013), this text covers MIC for 7 compounds.

≈ marks a conversion by molar mass, not a printed value.

The test system of the first experiment is Mycobacterium tuberculosis. Kind of experiment: Antitubercular activity against Mycobacterium tuberculosis H37Rv ATCC 27294 assessed as growth inhibition after 24 hr by BACTEC-460 radiometric susceptibility assay. As to conditions: H37Rv ATCC 27294, 24 h. Format: functional.
For `COc1cc(C(=O)O[C@H]2CCC(=O)c3ccccc32)cc(OC)c1OC` [4-O-(3,4,5-TRIMETHOXYBENZOYL)-ALPHA-TETRALONE], the MIC stood at 100 µg/mL (≈ 281 µM). Take `O=C(O[C@H]1CCC(=O)c2ccccc21)c1ccccc1` [4-O-BENZOYL-ALPHA-TETRALONE]: the MIC amounted to 100 µg/mL (≈ 376 µM).

Consider `COc1cccc(C(=O)O[C@H]2CCC(=O)c3ccccc32)c1` [4-O-META-ANISOYL-ALPHA-TETRALONE], for which the MIC amounted to 100 µg/mL (≈ 337 µM).

For the compound `CCCCCCCCCCCCCC(=O)O[C@H]1CCC(=O)c2ccccc21` [4-O-MYRICITOYL-ALPHA-TETRALONE], the MIC came to 50 µg/mL (≈ 134 µM). In the case of `CCCCCCCCCCCCCCCC(=O)O[C@H]1CCC(=O)c2ccccc21` [4-O-PALMITOYL-ALPHATETRALONE], the MIC was found to be 100 µg/mL (≈ 250 µM). As for `O=C1CC[C@H](O)c2ccccc21` [(-)-4-HYDROXY-ALPHA-TETRALONE], the MIC came out at 50 µg/mL (≈ 308 µM).

With `O=C1CC[C@H](O[C@@H]2O[C@H](CO)[C@@H](O)[C@H](O)[C@H]2O)c2ccccc21` [TETRALONE-4-O-BETA-D-GLUCOPYRANOSIDE], the MIC came out at 100 µg/mL (≈ 308 µM).

The test system of another experiment is Mycobacterium tuberculosis. Kind of experiment: Antimycobacterial activity against Mycobacterium tuberculosis H37Rv ATCC 27294 assessed as growth inhibition by agar dilution method. Format: functional.
Settings: not given
For the compound `O=C1CC[C@H](O)c2ccccc21` [(-)-4-HYDROXY-ALPHA-TETRALONE], the MIC was found to be 4 µg/mL (≈ 24.7 µM).
